Data reported in patent publication US20150164871A1, “Pharmaceutical Compositions for Combination Therapy” (Acesion Pharma, priority 2012, published 2015).
Entries after “also recorded” stand apart in the source; their conditions may differ.

Assays:
[1] = system: Isolated, perfused female guinea pig hearts; assay: Effect on atrial effective refractory period (aERP) in Langendorff heart; conditions: for prolongation of aERP from baseline values as compared to time matched controls (in words): administered alone, ICA 100 nmol/L, flecainide 1 μmol/L, ranolazine 3 μmol/L; for percentual prolongation of aERP after 30 minutes of perfusion as compared to the baseline: ICA 0.1 μM, flecainide 1 μM, ranolazine 3 μM, ±SEM
Procedure: (§1) The isolated heart was prepared as follows. Guinea pigs weighing between 350 and 600 g were anesthetized with i.p. injection of 200 mg/kg pentobarbital. In addition, 1000 IU/kg heparin were injected i.p. Respiration was maintained by artificial ventilation(atm air) through a cannula in the trachea (volume, 12 ml/kg; rate, 60 strokes/min). Upon thoracotomy, a perfusion cannula was inserted and fixed in the aorta for retro-grade perfusion. Hearts were mounted in a vertical Langendorff set-up (Hugo Sachs-Harvard Apparatus GmbH, March-Hugstetten, Germany) and perfused with Krebs-Henseleit solution: 120.4 mM NaCl, 4.0 mM KCl, 2.5 mM CaCl2, 0.6 mM MgSO4, 15.3 mM NaHCO3, 0.6 mM NaH2PO4, and 11.5 mM glucose, pH 7.4, at constant oxygenation with O2/CO2 in a 95/5% mixture at 37° C. Four monophasic action potential (MAP) electrodes were placed on the left atrium, the right atrium, the left ventricle, and right ventricle, respectively. A pacing electrode was placed on the right atrium. The electro-cardiogram (ECG) was obtained with three ECG electrodes placed in close proximity to the heart. All data were acquired using the 16-channel PowerLab system (ADInstruments, Oxfordshire, UK). Pacing stimuli were twice the diastolic threshold and with a duration of 2 milliseconds (ms) unless otherwise stated.
(§2) The aERP was measured (10 basic stimuli [called S1] followed by premature S2 stimuli applied with 2-ms decrements) immediately before and at the end of the 30-minute period at pacing rates of 5 Hz and 10 Hz. After the 30 minutes of perfusion with either 100 nmol/L N-(pyridin-2-yl)-4-(pyridin-2-yl)thiazol-2-amine (ICA), 1 μmol/L flecainide, or 3 μmol/L ranolazine, or vehicle, 1 μmol/L ACh was added to the perfusate and induction of AF was attempted 40 times with burst-pacing (50 Hz) for 2 seconds or until sustained (duration>3 min) AF was obtained (test compound dissolved in DMSO in a stock concentration of 10 mMol/L). ICA in a concentration of 100 nmol/L was then tested in combination with either 1 μmol/L flecainide or 3 μmol/L ranolazine using the same protocol as described above in this section.

[2] = system: Isolated, perfused female guinea pig hearts; assay: Effect on AF duration (ACh plus burst pacing) in Langendorff heart; conditions: for reduction of AF duration as compared to time matched controls (in words): administered alone, ICA 100 nmol/L, flecainide 1 μmol/L, ranolazine 3 μmol/L; for Log AF duration: log(10)-transformed, means±SEM, 1 μmol/L ACh, burst pacing 50 Hz, ICA 0.1 μM, flecainide 1 μM, ranolazine 3 μM
Procedure: as §1, §2

[3] = system: Isolated, perfused female guinea pig hearts; assay: Dose finding: cardioversion of acetylcholine/burst-pacing induced AF in Langendorff heart; conditions: for cardioversion obtained (animals converted out of animals): within 30 min, AF induced by 1 μmol/L ACh and burst pacing
Procedure: as §1
Isolated, perfused female guinea pig hearts from Dunkin Hartley strain (HsdPoc:DH) continuously paced on the right atrium (300 bpm) were allowed to stabilize, and the atrial effective refractory period (aERP) was measured. AF was induced by 1 μmol/L acetylcholine (ACh) combined with burst pacing (50 Hz, 10V). When sustained (>3minutes) AF was obtained, the test compound from a stock concentration of 10 mMol/L in DMSO was added to the perfusate in a concentration of 100 nmol/L for 30 min. If no cardioversion was obtained within 30 minutes, the concentration of the compound in the perfusate was increased to 300 nmol/L. If no cardioversion was obtained within an additional time period of 30 minutes, the concentration of the compound in the perfusate was increased to 1.0 μmol/L. If no cardioversion was obtained within a further time period of 30 minutes, the concentration of the compound in the perfusate was increased to 3.0 μmol/L. If no cardioversion was obtained within an additional time period of 30 minutes, the concentration of the compound in the perfusate was increased to 10.0 μmol/L. If no cardioversion was obtained within an additional time period of 30 minutes, the concentration of the compound in the perfusate was increased to 30.0 μmol/L. Cardioversion was considered obtained if sinus rhythm was obtained within 30 minutes of one of the above mentioned drug applications, and if sustained AF could not be reinduced with burst pacing stimulation immediately after this.

[4] = concentration 3.0 μM in perfusate

Row | Structure (SMILES) | prolongation of aERP from baseline values as compared to time matched controls (in words) [1] | percentual prolongation of aERP after 30 minutes of perfusion as compared to the baseline ([1]; pacing frequency 5 Hz) | percentual prolongation of aERP after 30 minutes of perfusion as compared to the baseline ([1]; pacing frequency 10 Hz) | reduction of AF duration as compared to time matched controls (in words) [2] | Log AF duration [2] | cardioversion obtained (animals converted out of animals) ([3]; concentration 0.3 μM in perfusate) | cardioversion obtained (animals converted out of animals) ([3]; concentration 1.0 μM in perfusate) | cardioversion obtained (animals converted out of animals) [3, 4] | No cardioversion (animals out of animals) ([3]; stepwise 0.1 to 30.0 μM, 30 min each) | cardioversion obtained (animals converted out of animals) ([3]; concentration 10.0 μM in perfusate)
1 | c1ccc(Nc2nc(-c3ccccn3)cs2)nc1 [ICA, N-(pyridin-2-yl)-4-(pyridin-2-yl)thiazol-2-amine] | no significant prolongation of aERP; also recorded: does not cause any significant effects | 112.5 ± 3.8% | 119.3 ± 10.6% | no significant reduction of AF duration; also recorded: does not cause any significant effects | 1.29 ± 0.15 | 4/4 | – | – | – | –
2 | COc1ccccc1OCC(O)CN1CCN(CC(=O)Nc2c(C)cccc2C)CC1 (stereo not drawn) [Ranolazine, N-(2,6-dimethylphenyl)-2-[4-[2-hydroxy-3-(2-methoxyphenoxy)-propyl]piperazin-1-yl]acetamide] | no significant prolongation of aERP; also recorded: sub-effective | 114.81 ± 12.7% | 114.4 ± 9.9% | no significant reduction of AF duration; also recorded: sub-effective | 1.11 ± 0.23 | – | 1/5 | 2/5 | 2/5 | –
3 | O=C(NCC1CCCCN1)c1cc(OCC(F)(F)F)ccc1OCC(F)(F)F (stereo not drawn) [Flecainide, N-(piperidin-2-ylmethyl)-2,5-bis(2,2,2-trifluoroethoxy)benzamide] | no significant prolongation of aERP; also recorded: sub-effective | 123.0 ± 2.6% | 124.6 ± 8.0% | no significant reduction of AF duration; also recorded: sub-effective | 1.27 ± 0.14 | – | – | 2/4 | – | 2/4
